Assay results reported in PubChem BioAssay (NCI).
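Cells were grown in 96-well plates and exposed to each compound for 48 hours at five concentrations; endpoints were interpolated linearly between bracketing concentrations, or set to the highest concentration if not reached. GI50 marks 50% less growth. TGI is the concentration that stops growth completely.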

Legend:
Experiment in all cases: inhibition of tumour cell growth, NCI panel, 48 h
SF-268 CNS = test system: SF-268 CNS
OVCAR-3 ovarian = test system: OVCAR-3 ovarian
CCRF-CEM leukemia = test system: CCRF-CEM leukemia
UACC-62 melanoma = test system: UACC-62 melanoma
K-562 leukemia = test system: K-562 leukemia
SW-620 colon = test system: SW-620 colon
SF-295 CNS = test system: SF-295 CNS
A549 NSCLC = test system: A549 NSCLC
SK-MEL-28 melanoma = test system: SK-MEL-28 melanoma
OVCAR-4 ovarian = test system: OVCAR-4 ovarian
A498 renal = test system: A498 renal
UACC-257 melanoma = test system: UACC-257 melanoma
SN12C renal = test system: SN12C renal
HCC-2998 colon = test system: HCC-2998 colon
MDA-MB-435 = test system: MDA-MB-435
ACHN renal = test system: ACHN renal
NCI/ADR-RES ovarian = test system: NCI/ADR-RES ovarian
HT29 colon = test system: HT29 colon
PC-3 prostate = test system: PC-3 prostate
COLO 205 colon = test system: COLO 205 colon
RXF 393 renal = test system: RXF 393 renal
MCF7 breast = test system: MCF7 breast
NCI-H460 lung = test system: NCI-H460 lung
SK-MEL-2 melanoma = test system: SK-MEL-2 melanoma
MDA-MB-231 breast = test system: MDA-MB-231 breast
HS 578T breast = test system: HS 578T breast
HCT-15 colon = test system: HCT-15 colon
IGROV1 ovarian = test system: IGROV1 ovarian
SF-539 CNS = test system: SF-539 CNS
T-47D breast = test system: T-47D breast
NCI-H522 lung = test system: NCI-H522 lung
DU-145 prostate = test system: DU-145 prostate
NCI-H23 lung = test system: NCI-H23 lung
OVCAR-8 ovarian = test system: OVCAR-8 ovarian
SK-OV-3 ovarian = test system: SK-OV-3 ovarian
HOP-62 NSCLC = test system: HOP-62 NSCLC
SR leukemia = test system: SR leukemia
RPMI-8226 leukemia = test system: RPMI-8226 leukemia
HOP-92 NSCLC = test system: HOP-92 NSCLC
786-0 renal = test system: 786-0 renal
TK-10 renal = test system: TK-10 renal
KM12 colon = test system: KM12 colon
MOLT-4 leukemia = test system: MOLT-4 leukemia
M14 melanoma = test system: M14 melanoma
SK-MEL-5 melanoma = test system: SK-MEL-5 melanoma
CAKI-1 renal = test system: CAKI-1 renal
BT-549 breast = test system: BT-549 breast
HCT-116 colon = test system: HCT-116 colon
MALME-3M melanoma = test system: MALME-3M melanoma
OVCAR-5 ovarian = test system: OVCAR-5 ovarian
SNB-19 CNS = test system: SNB-19 CNS
UO-31 renal = test system: UO-31 renal
U251 CNS = test system: U251 CNS
SNB-75 CNS = test system: SNB-75 CNS
LOX IMVI melanoma = test system: LOX IMVI melanoma
HL-60(TB) leukemia = test system: HL-60(TB) leukemia
EKVX NSCLC = test system: EKVX NSCLC
NCI-H226 lung = test system: NCI-H226 lung

CCc1nn2c(C)cc(C)nc2c1Cc1ccc(/C=C/CN2CCN(CCOCCOCCN3CCN(C/C=C/c4ccc(Cc5c(CC)nn6c(C)cc(C)nc56)cc4)CC3)CC2)cc1
GI50 (SF-268 CNS): 2.94 µM
TGI (SF-268 CNS): 8.26 µM
GI50 (OVCAR-3 ovarian): 2.58 µM
TGI (OVCAR-3 ovarian): 7.12 µM
GI50 (CCRF-CEM leukemia): 1.64 µM
TGI (CCRF-CEM leukemia): 4.18 µM
GI50 (UACC-62 melanoma): 1.74 µM
TGI (UACC-62 melanoma): 3.3 µM
GI50 (K-562 leukemia): 1.79 µM
TGI (K-562 leukemia): 4.41 µM
GI50 (SW-620 colon): 1.7 µM
TGI (SW-620 colon): 3.31 µM
GI50 (SF-295 CNS): 2.95 µM
TGI (SF-295 CNS): 7.6 µM
GI50 (A549 NSCLC): 4.25 µM
TGI (A549 NSCLC): 8.78 µM
GI50 (SK-MEL-28 melanoma): 1.75 µM
TGI (SK-MEL-28 melanoma): 3.2 µM
GI50 (OVCAR-4 ovarian): 1.8 µM
TGI (OVCAR-4 ovarian): 3.86 µM
GI50 (A498 renal): 5.15 µM
TGI (A498 renal): 9.66 µM
GI50 (UACC-257 melanoma): 1.74 µM
TGI (UACC-257 melanoma): 3.4 µM
GI50 (SN12C renal): 1.86 µM
TGI (SN12C renal): 3.99 µM
GI50 (HCC-2998 colon): 1.77 µM
TGI (HCC-2998 colon): 3.48 µM
GI50 (MDA-MB-435): 1.75 µM
TGI (MDA-MB-435): 3.26 µM
GI50 (ACHN renal): 2.25 µM
TGI (ACHN renal): 5.2 µM
GI50 (NCI/ADR-RES ovarian): 2.74 µM
TGI (NCI/ADR-RES ovarian): 7.88 µM
GI50 (HT29 colon): 1.66 µM
TGI (HT29 colon): 3.26 µM
GI50 (PC-3 prostate): 2.81 µM
TGI (PC-3 prostate): 7.76 µM
GI50 (COLO 205 colon): 1.71 µM
TGI (COLO 205 colon): 3.22 µM
GI50 (RXF 393 renal): 1.68 µM
TGI (RXF 393 renal): 3.97 µM
GI50 (MCF7 breast): 1.7 µM
TGI (MCF7 breast): 3.35 µM
GI50 (NCI-H460 lung): 1.88 µM
TGI (NCI-H460 lung): 3.53 µM
GI50 (SK-MEL-2 melanoma): 5.35 µM
TGI (SK-MEL-2 melanoma): 9.95 µM
GI50 (MDA-MB-231 breast): 1.91 µM
TGI (MDA-MB-231 breast): 4.13 µM
GI50 (HS 578T breast): 5.14 µM
TGI (HS 578T breast): 12.1 µM
GI50 (HCT-15 colon): 1.69 µM
TGI (HCT-15 colon): 3.4 µM
GI50 (IGROV1 ovarian): 2.8 µM
TGI (IGROV1 ovarian): 7.64 µM
GI50 (SF-539 CNS): 1.72 µM
TGI (SF-539 CNS): 3.19 µM
GI50 (T-47D breast): 1.74 µM
TGI (T-47D breast): 3.74 µM
GI50 (NCI-H522 lung): 1.7 µM
TGI (NCI-H522 lung): 3.39 µM
GI50 (DU-145 prostate): 2.88 µM
TGI (DU-145 prostate): 7.21 µM
GI50 (NCI-H23 lung): 1.86 µM
TGI (NCI-H23 lung): 3.65 µM
GI50 (OVCAR-8 ovarian): 1.92 µM
TGI (OVCAR-8 ovarian): 3.92 µM
GI50 (SK-OV-3 ovarian): 5.75 µM
TGI (SK-OV-3 ovarian): 10.5 µM
GI50 (HOP-62 NSCLC): 4.63 µM
TGI (HOP-62 NSCLC): 9.44 µM
GI50 (SR leukemia): 1.81 µM
TGI (SR leukemia): 4.6 µM
GI50 (RPMI-8226 leukemia): 1.87 µM
TGI (RPMI-8226 leukemia): 4.33 µM
GI50 (HOP-92 NSCLC): 2.37 µM
TGI (HOP-92 NSCLC): 7.16 µM
GI50 (786-0 renal): 1.72 µM
TGI (786-0 renal): 3.28 µM
GI50 (TK-10 renal): 5.72 µM
TGI (TK-10 renal): 10.4 µM
GI50 (KM12 colon): 3.28 µM
TGI (KM12 colon): 7.96 µM
GI50 (MOLT-4 leukemia): 2.16 µM
TGI (MOLT-4 leukemia): 5.13 µM
GI50 (M14 melanoma): 1.76 µM
TGI (M14 melanoma): 3.37 µM
GI50 (SK-MEL-5 melanoma): 1.87 µM
TGI (SK-MEL-5 melanoma): 3.52 µM
GI50 (CAKI-1 renal): 1.59 µM
TGI (CAKI-1 renal): 3.35 µM
GI50 (BT-549 breast): 4.98 µM
TGI (BT-549 breast): 9.52 µM
GI50 (HCT-116 colon): 1.63 µM
TGI (HCT-116 colon): 3.16 µM
GI50 (MALME-3M melanoma): 1.73 µM
TGI (MALME-3M melanoma): 3.23 µM
GI50 (OVCAR-5 ovarian): 4.8 µM
TGI (OVCAR-5 ovarian): 9.34 µM
GI50 (SNB-19 CNS): 2.94 µM
TGI (SNB-19 CNS): 7.95 µM
GI50 (UO-31 renal): 1.42 µM
TGI (UO-31 renal): 3.05 µM
GI50 (U251 CNS): 1.85 µM
TGI (U251 CNS): 3.76 µM
GI50 (SNB-75 CNS): 4.09 µM
TGI (SNB-75 CNS): 8.18 µM
GI50 (LOX IMVI melanoma): 1.68 µM
TGI (LOX IMVI melanoma): 3.16 µM
GI50 (HL-60(TB) leukemia): 1.78 µM
TGI (HL-60(TB) leukemia): 3.74 µM
GI50 (EKVX NSCLC): 4.26 µM
TGI (EKVX NSCLC): 8.84 µM
GI50 (NCI-H226 lung): 5.09 µM
TGI (NCI-H226 lung): 10.9 µM
